Entries after “also recorded” stand apart in the source; their conditions may differ.
Columns and labels:
[1] = tested on: Dutch male colored rabbits; assay: Activity to reduce intraocular pressure on continuous eye drop administration in rabbits; assay type: in vivo, rabbit; details: for Difference in intraocular pressure after the administration: test eye vs control eye, mean±S.E.; for time of maximum reduction in intraocular pressure after the administration: all determination days to the 57th day
Method: KRG-3332 as prepared in Reference Example 2 was dissolved in physiological saline to prepare a 0.01% solution, which was used as test solution 1 (0.01% eye drop) in the following method for determining the activity to reduce intraocular pressure. […] For the administration of eye drop, each 50 ρL of the test solution and the control (physiological saline) was administered to one eye and the other eye respectively, twice a day (11:00 and 19:00), and the administration continued for up to 57 days. The corneal surfaces of the animals were anaesthetized with 0.4% oxybuprocaine hydrochloride eye drop to, and the intraocular pressure was determined at time points of 11:00 (before the administration), 13:00(2 hours after the administration), 15:00 (4 hours after the administration) and 19:00 (8 hours after the administration, immediately before the second administration) one day before the administration and thereafter every week using an air applanation ophthalmotonometer (ALCON JAPAN LTD.). Average (mean±S.E.) of the difference between the intraocular pressures of eyes administered with the test solution and the control as determined at each time point, and the relevant t-test results were estimated. KRG-3332 was dissolved in physiological saline to prepare a 0.1% solution, which was used as test solution 2 (0.1% eye drop) in the determination of the activity to reduce intraocular pressure in a similar manner to above (1). For the comparison, bunazosin hydrochloride was dissolved in physiological saline to prepare a 0.03% solution, which was used as test solution 3 (reference drug, 0.03% eye drop of bunazosin hydrochloride) in the determination of the activity to reduce intraocular pressure in a similar manner to above (1) and (2).

human variant α1 A-AR = target: T1, human variant α1 A-AR (Homo sapiens, UniProt P35348, A271T); assay: Effects on expression level of α1 A-AR in CHO cells expressing variant α1 A-AR ([3H]-prazosin binding to membrane fractions); details: CHO cells expressing variant α1 A-AR cultured 48 hours with test drug 10^−8 M (mixture: each 10^−8 M)
T1 sequence (P35348 1-466 A271T): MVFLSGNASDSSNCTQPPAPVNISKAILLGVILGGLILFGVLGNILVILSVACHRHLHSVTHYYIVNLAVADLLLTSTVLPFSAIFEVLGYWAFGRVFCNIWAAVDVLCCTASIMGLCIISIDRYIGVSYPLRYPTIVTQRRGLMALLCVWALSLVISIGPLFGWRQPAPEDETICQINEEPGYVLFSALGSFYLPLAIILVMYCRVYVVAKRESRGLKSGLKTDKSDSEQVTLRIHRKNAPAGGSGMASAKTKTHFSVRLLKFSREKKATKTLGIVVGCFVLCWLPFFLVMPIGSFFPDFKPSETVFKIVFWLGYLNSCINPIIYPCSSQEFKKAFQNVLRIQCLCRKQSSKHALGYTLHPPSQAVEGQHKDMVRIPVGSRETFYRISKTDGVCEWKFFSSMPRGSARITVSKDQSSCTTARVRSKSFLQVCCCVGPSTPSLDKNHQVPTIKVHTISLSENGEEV
Method: The wild or variant α1 A-AR gene was incorporated into mammalian expression vector pCR3 (Invitrogen Inc.) using restriction enzyme EcoRI, and the vector was transfected into CHO cells with Lipofectamin (GIBCO Inc.).
The membrane fractions (about 20 μg protein/tube) were incubated in the presence of [^3 H]-prazosin (NEN Inc.) (30 to 200 μM) at 30° C. for 45 minutes, and then harvested on GF/C filter (Whatman Inc.) using a cell collecting apparatus (m-36T, Brandel Inc.). The filter was washed with 50 mM Tris-HCl buffer (pH7.4) several times, and then the radioactivity bound on the membrane was determined using a liquid scintillation counter. […] The experimental data was analyzed using nonlinear approximate program PRISM (trade mark) (Graphpad Software Inc.) to calculate the expression level of the receptor.

[2] = tested on: patients suffering from primary closed angle glaucoma and ocular hypertension; details: 0.05% eye drop, continuous administration; cited from earlier work
[3] = tested on: patients suffering from ocular hypertension; details: cited from earlier work

## CCOc1ccccc1OCCN[C@H](C)Cc1cc(C(N)=O)c2c(ccn2CCCOC(=O)C(C)(C)C)c1.Cl [KRG-3332, (R)-3-[7-carbamoyl-5-[2-[[2-(2-ethoxyphenoxy)ethyl]amino]propyl]-1H-indol-1-yl]propyl pivalate hydrochloride]
[1]; 0.01% and 0.1% eye drops twice a day for up to 57 days
  development of drug resistance (change in activity to reduce intraocular pressure by continuous administration): no development of drug resistance
[1]; 0.01% eye drop, 1st day, 0 hours after the administration
  Difference in intraocular pressure after the administration: 0.050 ± 0.398 mmHg
[1]; 0.01% eye drop, 1st day, 8 hours after the administration
  Difference in intraocular pressure after the administration: −0.400 ± 0.392 mmHg
[1]; 0.01% eye drop, 8th day, 0 hours after the administration
  Difference in intraocular pressure after the administration: −0.200 ± 0.242 mmHg
[1]; 0.01% eye drop, 15th day, 4 hours after the administration
  Difference in intraocular pressure after the administration: −1.600 ± 0.882 mmHg
[1]; 0.01% eye drop, 15th day, 8 hours after the administration
  Difference in intraocular pressure after the administration: −0.350 ± 0.828 mmHg
[1]; 0.01% eye drop, 22nd day, 0 hours after the administration
  Difference in intraocular pressure after the administration: −0.850 ± 0.589 mmHg
[1]; 0.01% eye drop, 22nd day, 8 hours after the administration
  Difference in intraocular pressure after the administration: −0.550 ± 0.348 mmHg
[1]; 0.01% eye drop, 29th day, 8 hours after the administration
  Difference in intraocular pressure after the administration: −0.400 ± 0.392 mmHg
[1]; 0.01% eye drop, 36th day, 0 hours after the administration
  Difference in intraocular pressure after the administration: −0.500 ± 0.447 mmHg
[1]; 0.01% eye drop, 36th day, 4 hours after the administration
  Difference in intraocular pressure after the administration: −1.349 ± 0.831 mmHg
[1]; 0.01% eye drop, 36th day, 8 hours after the administration
  Difference in intraocular pressure after the administration: −1.250 ± 0.818 mmHg
[1]; 0.01% eye drop, 43rd day, 0 hours after the administration
  Difference in intraocular pressure after the administration: −0.150 ± 0.491 mmHg
[1]; 0.01% eye drop, 43rd day, 8 hours after the administration
  Difference in intraocular pressure after the administration: 0.100 ± 0.376 mmHg
[1]; 0.01% eye drop, 50th day, 0 hours after the administration
  Difference in intraocular pressure after the administration: −0.400 ± 0.430 mmHg
[1]; 0.01% eye drop, 50th day, 8 hours after the administration
  Difference in intraocular pressure after the administration: −0.900 ± 0.551 mmHg
[1]; 0.01% eye drop, 57th day, 0 hours after the administration
  Difference in intraocular pressure after the administration: 0.050 ± 0.366 mmHg
[1]; 0.01% eye drop, 57th day, 8 hours after the administration
  Difference in intraocular pressure after the administration: −0.150 ± 0.400 mmHg
[1]; 0.01% eye drop
  time of maximum reduction in intraocular pressure after the administration: 2 h
[1]; 0.1% eye drop, 1st day, 0 hours after the administration
  Difference in intraocular pressure after the administration: 0.000 ± 0.285 mmHg
[1]; 0.1% eye drop, 8th day, 0 hours after the administration
  Difference in intraocular pressure after the administration: −1.050 ± 0.619 mmHg
[1]; 0.1% eye drop, 15th day, 0 hours after the administration
  Difference in intraocular pressure after the administration: −1.350 ± 0.944 mmHg
[1]; 0.1% eye drop, 15th day, 8 hours after the administration
  Difference in intraocular pressure after the administration: −1.700 ± 0.917 mmHg
[1]; 0.1% eye drop, 36th day, 0 hours after the administration
  Difference in intraocular pressure after the administration: −1.050 ± 0.878 mmHg
[1]; 0.1% eye drop, 43rd day, 8 hours after the administration
  Difference in intraocular pressure after the administration: −2.250 ± 0.862 mmHg
[1]; 0.1% eye drop, 50th day, 0 hours after the administration
  Difference in intraocular pressure after the administration: −0.600 ± 0.801 mmHg
[1]; 0.1% eye drop, 50th day, 4 hours after the administration
  Difference in intraocular pressure after the administration: −1.950 ± 0.756 mmHg
[1]; 0.1% eye drop, 50th day, 8 hours after the administration
  Difference in intraocular pressure after the administration: −1.150 ± 0.573 mmHg
[1]; 0.1% eye drop, 57th day, 0 hours after the administration
  Difference in intraocular pressure after the administration: −1.500 ± 0.822 mmHg
[1]; 0.1% eye drop
  time of maximum reduction in intraocular pressure after the administration: 2 h

## CCCC(=O)N1CCCN(c2nc(N)c3cc(OC)c(OC)cc3n2)CC1.Cl [bunazosin hydrochloride, 1-(4-amino-6,7-dimethoxy-2-quinazolinyl)-4-butyrylhexahydro-1H-1,4-diazepin hydrochloride, reference compound]
Human variant α1 A-AR
  expression level of the α1 A-AR (receptor levels): induced the increase in the receptor levels about three times compared to the treatment with KRG-3333
[1]; 0.03% eye drop twice a day, up to 29th day, hydrochloride
  development of drug resistance (change in activity to reduce intraocular pressure by continuous administration): any difference from the eyes administered with the control was hardly observed on the 22nd day; also recorded: any reduction in intraocular pressure was hardly observed on the 22nd day
[1]; 0.03% eye drop, 1st day, 0 hours after the administration
  Difference in intraocular pressure after the administration: 0.700 ± 0.320 mmHg
[1]; 0.03% eye drop, 1st day, 4 hours after the administration
  Difference in intraocular pressure after the administration: −1.700 ± 1.452 mmHg
[1]; 0.03% eye drop, 1st day, 8 hours after the administration
  Difference in intraocular pressure after the administration: 0.150 ± 0.947 mmHg
[1]; 0.03% eye drop, 8th day, 0 hours after the administration
  Difference in intraocular pressure after the administration: 0.600 ± 0.579 mmHg
[1]; 0.03% eye drop, 8th day, 4 hours after the administration
  Difference in intraocular pressure after the administration: −0.950 ± 1.176 mmHg
[1]; 0.03% eye drop, 8th day, 8 hours after the administration
  Difference in intraocular pressure after the administration: −0.350 ± 0.430 mmHg
[1]; 0.03% eye drop, 15th day, 0 hours after the administration
  Difference in intraocular pressure after the administration: 0.100 ± 0.562 mmHg
[1]; 0.03% eye drop, 15th day, 2 hours after the administration
  Difference in intraocular pressure after the administration: −1.450 ± 0.804 mmHg
[1]; 0.03% eye drop, 15th day, 4 hours after the administration
  Difference in intraocular pressure after the administration: −0.250 ± 0.494 mmHg
[1]; 0.03% eye drop, 15th day, 8 hours after the administration
  Difference in intraocular pressure after the administration: −0.100 ± 0.150 mmHg
[1]; 0.03% eye drop, 22nd day, 0 hours after the administration
  Difference in intraocular pressure after the administration: −0.050 ± 0.567 mmHg
[1]; 0.03% eye drop, 22nd day, 2 hours after the administration
  Difference in intraocular pressure after the administration: −0.250 ± 0.576 mmHg
[1]; 0.03% eye drop, 22nd day, 4 hours after the administration
  Difference in intraocular pressure after the administration: −0.200 ± 0.330 mmHg
[1]; 0.03% eye drop, 22nd day, 8 hours after the administration
  Difference in intraocular pressure after the administration: 0.350 ± 0.150 mmHg
[1]; 0.03% eye drop, 29th day, 0 hours after the administration
  Difference in intraocular pressure after the administration: 0.300 ± 1.011 mmHg
[1]; 0.03% eye drop, 29th day, 2 hours after the administration
  Difference in intraocular pressure after the administration: −0.250 ± 0.652 mmHg
[1]; 0.03% eye drop, 29th day, 4 hours after the administration
  Difference in intraocular pressure after the administration: −0.500 ± 0.306 mmHg
[1]; 0.03% eye drop, 29th day, 8 hours after the administration
  Difference in intraocular pressure after the administration: −0.200 ± 0.289 mmHg
[2]
  attenuation in activity to reduce intraocular pressure: initiate the attenuation in an activity to reduce intraocular pressure after 4-weeks continuous administration

## COC(=O)[C@H]1[C@H]2C[C@H]3c4[nH]c5ccccc5c4CCN3C[C@@H]2CC[C@@H]1O [corynanthine, methyl 17α-hydroxyyohimban-16β-carboxylate]
[3]; concentrations of 2 to 5% in eye drops
  activity for reducing intraocular pressure: demonstrated Lo have an activity for reducing intraocular pressure
[3]; continued administration for a week
  development of drug resistance: the continued administration thereof for a week developed drug resistance

— patent publication US20040235932A1, “Ophthalmic pharmaceutical compositions” (priority 2001, published 2004)
